Source: patent US20240009220A1, “METHODS FOR TREATMENT OF VIRAL INFECTIONS” (priority 2022, published 2024)
Read-outs that look alike come from different tables or passages of the source.

What was measured:
SARS-CoV-2 Fluc = format: cell-based
[1] = test system: pregnant New Zealand White (NZW) rabbits; experiment: Oral gavage embryo-fetal development study with compound 16 in rabbits
Experimental: (§1) The effects of compound 16 on pregnant New Zealand White (NZW) rabbits and the development of the embryo consequent to exposure of the female from implantation to closure of the hard palate (Gestation Days [GD] 7 through 19) was evaluated. Compound 16 was administered to 4 groups of pregnant rabbits (20/group) at doses of 0 (0.5% methylcellulose in deionized water), 125, 250, and 500 mg/kg/day once daily via oral gavage during organogenesis (GD 7 to 19). Assessment of toxicity was based on mortality, clinical observations, body weights, food consumption, and necropsy and cesarean section findings. In addition, blood samples were collected for toxicokinetic evaluation of compound 16 and compound 1 from similarly dosed animals (4/group).

[2] = as above; conditions: female, New Zealand White, rabbit, in vivo, po
Experimental: as §1

pregnant Wistar Han rats [3] = experiment: Embryo-fetal development study of compound 16 by oral gavage in Wistar Han rats; format: in vivo; conditions: 125 and 250 mg/kg/day, GD 6 to 17, rats
Experimental: (§2) The potential of compound 16 to induce developmental toxicity after maternal exposure during the critical period of organogenesis (GD 6 through 17) were evaluated, maternal toxicity at the exposure levels tested was characterized, and a no observed-adverse-effect level (NOAEL) for maternal toxicity and developmental toxicity following oral administration in Wistar Han rats was determined.
(§3) Rats were necropsied and cesarean sectioned on GD 21. […] Any macroscopic abnormalities were noted. Pregnancy status was determined. […] The thoracic and abdominal cavities were opened and dissected using a technique described by Stuckhardt and Poppe (1984). Fetal kidneys were examined and graded for renal papillae development (Woo and Hoar, 1972). The heads from these fetuses were removed and placed in Harrison's fixative for soft tissue examination using the Wilson sectioning technique (Wilson, 1965). The remaining fetuses (approximately one-half from each litter), were eviscerated, fixed in 100% ethyl alcohol, macerated in potassium hydroxide and stained with Alizarin Red S by a method similar to that described by Dawson (1926) for subsequent examination of skeletons.

[4] = as above; format: in vivo; conditions: female, rat, in vivo; pregnant Wistar Han rats, once daily oral gavage GD 6 to 17, definitive study; read-out: no-observed-adverse-effect level (NOAEL) for maternal toxicity and embryofetal development
Experimental: as §2, §3

pregnant Wistar Han rats [5] = experiment: Enhanced dose range-finding embryo-fetal development study of compound 16 by oral gavage in Wistar Han rats; conditions: rat, in vivo
Experimental: (§4) The effects of compound 16 on pregnant Wistar Han rats and development of the embryo consequent to exposure of the female from implantation to closure of the hard palate were evaluated. Compound 16 was administered to 4 groups of presumed pregnant rats (8/group) at doses of 0 (vehicle), 125, 250, and 500 mg/kg/day via once daily gavage administration during organogenesis (gestation days [GD] 6 to 17) at a dose volume of 5 mL/kg. Additional pregnant rats were similarly dosed for toxicokinetic assessment of compound 16 and compound 1. Assessment of toxicity to the pregnant rats was based on mortality, clinical observations, body weights and food consumption. Rats were necropsied and cesarean sectioned on GD 21. An examination of the external features of the carcass; external body orifices; abdominal, thoracic, pelvic, and oral cavities; organs; and tissues was performed. Any macroscopic abnormalities were noted. Pregnancy status was determined. The uterus from each pregnant animal was excised, weighed, and examined for the number and placement of live and dead fetuses, the number of early or late resorptions, and any abnormalities. The right and left ovaries from each pregnant female were examined for the number of corpora lutea. Each fetus was sexed, weighed, and examined for external abnormalities. […]

[6] = as above; conditions: female, Wistar Han, rat, in vivo, po
Experimental: as §4

[7] = female, Wistar Han, rat, in vivo, po, 250 mg/kg/day
Experimental: as §4

[8] = female, New Zealand White, rabbit, in vivo, po, 125 mg/kg/day
Experimental: as §1

Row | SMILES | Bliss independence consensus score, Average of Replicates (SARS-CoV-2 Fluc) | drug combination effect by Bliss score (SARS-CoV-2 Fluc) | skeletal malformations ([1]; rabbit fetuses) | fetal visceral findings ([1]; rabbit, in vivo, 250 mg/kg/day) | NOAEL [2] [mg/kg/day] | effects on intrauterine growth or survival (pregnant Wistar Han rats [3]) | external, visceral or skeletal malformations or variations (pregnant Wistar Han rats [3]) | NOAEL [4] [mg/kg/day] | tolerability of dose level (pregnant Wistar Han rats [5]) | NOAEL [6] [mg/kg/day] | compound 1 AUC0-24h exposure [7] | compound 1 AUC0-24h exposure [8]
1 | CC(C)C(=O)OC[C@H]1O[C@@](C#N)(c2ccc3c(N)ncnn23)[C@H](O)[C@@H]1O [Compound 16] | 6.15±2.16 | Additive | No compound 16-related skeletal malformations | increased rates of ventricular septum defects, large or small heart ventricles, dilated or malpositioned aortas, retroesophageal aortic arches, retroesophageal subclavian arteries, abnormal lobulation of the liver | 125 | No compound 16-related effects | No compound 16-related external, visceral or skeletal malformations or variations | 250 | not tolerated | 250 | – | –
2 | CC(C)(C)[C@H](NC(=O)C(F)(F)F)C(=O)N1C[C@H]2[C@@H]([C@H]1C(=O)N[C@H](C#N)C[C@@H]1CCNC1=O)C2(C)C [nirmatrelvir, reference compound] | 0.13±1.53 | Additive | – | – | – | – | – | – | – | – | – | –
3 | N#C[C@@]1(c2ccc3c(N)ncnn23)O[C@H](CO)[C@@H](O)[C@H]1O [Compound 1] | 8.00±1.09 | Additive | – | – | – | – | – | – | – | – | 183,000 ng*h/mL | 64,100 ng*h/mL
4 | CC(C)C(=O)OC[C@H]1O[C@@H](n2ccc(NO)nc2=O)[C@H](O)[C@@H]1O [molnupiravir, Molnupiravir, reference compound] | −2.47 | Additive | – | – | – | – | – | – | – | – | – | –
